From patent publication US10238618B2, “Compositions and methods for diagnosis and treatment of anemia” (The United States of America as represented by the …, priority 2016, dated 2019)

Key:
Format in all cases: in vivo, bottlenose dolphin (Tursiops truncatus)
[1] = Serum fatty acid form concentrations (complex lipidomics) in dolphins fed modified diet; details: case dolphins fed modified diet (n = 20)
Method: (§1) Determination of serum fatty acid concentrations, including a variety of fatty acid classes, were performed by Metabolon, Inc. (Durham, N.C.) using complex lipidomics. Lipids were extracted from samples using dichloromethane and methanol in a modified Bligh-Dyer extraction in the presence of internal standards with the lower, organic, phase being used for analysis. The extracts were concentrated under nitrogen and reconstituted in 0.25 mL of dichloromethane:methanol (50:50) containing 10 mM ammonium acetate. The extracts were placed in vials for infusion-MS analyses, performed on a SelexION equipped Sciex 5500 QTRAP using both positive and negative mode electrospray. Each sample was subjected to 2 analyses, with IMS-MS conditions optimized for lipid classes monitored in each analysis. The 5500 QTRAP was operated in MRM mode to monitor the transitions for over 1,100 lipids from up to 14 lipid classes. Individual lipid species were quantified based on the ratio of signal intensity for target compounds to the signal intensity for an assigned internal standard of known concentration. Lipid class concentrations were calculated from the sum of all molecular species within a class, and fatty acid compositions were determined by calculating the proportion of individual fatty acids within each class. […]

[2] = Total serum fatty acid concentrations in dolphins fed modified diet; details: for concentration at 0 month / concentration at 1 month / concentration at 3 month / concentration at 6 month: bottlenose dolphin (Tursiops truncatus), Case dolphins fed modified diet (n = 20); for concentration at 0 month: Month 0 (baseline), 2 h postprandial; for concentration at 1 month: Month 1, 2 h postprandial; for concentration at 3 month: Month 3, 2 h postprandial; for concentration at 6 month: Month 6, 2 h postprandial
Method: CV % were typically under 10%.
as §1

[3] = tested on: red blood cell indices; test: Stepwise and simple linear regression: serum fatty acids as predictors of red blood cell indices; details: Group A dolphins on the modified diet
Method: Fatty acids that were independent predictors of red blood cell indices were then tested for linear associations with red blood cell indices using simple linear regressions.

[4] = Serum total fatty acids (% of total fatty acids), MMP dolphins versus wild Sarasota Bay dolphins
Source text: Dolphins at the Navy Marine Mammal Program (MMP) are a well-studied dolphin population with regard to chronic diseases and diseases of aging, and this population is more susceptible to anemia (lower packed cell volume and lower hemoglobin) compared to wild dolphins living in Sarasota Bay, Fla. (Table 1). MMP dolphins also have lower total serum odd chain saturated fatty acids and lower very long even chain saturated fatty acids compared to Sarasota Bay dolphins (Table 1, See also Venn-Watson et al. (2016) Increased dietary intake of saturated fatty acid heptadecanoic acid (C17:0) associated with decreasing ferritin and alleviated metabolic syndrome in dolphins. […] Proposed risk factors for anemia in MMP dolphins can include advanced age, chronic disease, and diet (see Venn-Watson S, Smith C R, Gomez F, Jensen E D (2011) Physiology of aging among healthy, older bottlenose dolphins (Tursiops truncatus): comparisons with aging humans. J Comp Phys B 181:667-680). It can be hypothesized that differences in dietary fish (and differences in certain fatty acids associated with particular types of fish) can be responsible for the risk of anemia.

[5] = wild Sarasota Bay Dolphins (n = 19)

With `CCCCCCCCCCCCCC(=O)O[C@H]1CC[C@@]2(C)C(=CC[C@H]3[C@@H]4CC[C@H]([C@H](C)CCCC(C)C)[C@@]4(C)CC[C@@H]32)C1` [C14:0 CE] the “Serum concentrations of fatty acid forms” value ([1]; Month 0 (baseline)) was 126 ± 32 µM, the “Serum concentrations of fatty acid forms” value ([1]; Month 1) was 86 ± 21 µM and the “Serum concentrations of fatty acid forms” value ([1]; Month 3) was 93 ± 20 µM. For the same compound, the “Serum concentrations of fatty acid forms” value ([1]; Month 6) was 92 ± 25 µM.
With `CCCCCCCCCCCCCC(=O)O` [C14:0, myristic acid] the concentration at 0 month ([2]; serum, oral) was 243 ± 63 µM, the concentration at 1 month ([2]; serum, oral) was 195 ± 50 µM and the concentration at 3 month ([2]; serum, oral) was 226 ± 46 µM. The concentration at 6 month ([2]; serum, oral) was 206 ± 33 µM.
With `CCCCCCCCCCCCCCC(=O)O[C@H]1CC[C@@]2(C)C(=CC[C@H]3[C@@H]4CC[C@H]([C@H](C)CCCC(C)C)[C@@]4(C)CC[C@@H]32)C1` [C15:0 CE] the “Serum concentrations of fatty acid forms” value ([1]; Month 0 (baseline)) was 22 ± 5 µM, the “Serum concentrations of fatty acid forms” value ([1]; Month 1) was 61 ± 19 µM and the “Serum concentrations of fatty acid forms” value ([1]; Month 3) was 66 ± 17 µM. The “Serum concentrations of fatty acid forms” value ([1]; Month 6) was 64 ± 22 µM and the “Increased serum concentration as independent, linear predictor of red blood cell indices” value [3] was “independently predicted improved red blood cell indices”.
In the case of `CCCCCCCCCCCCCCC(=O)O` [C15:0 FFA], the “Serum concentrations of fatty acid forms” value ([1]; Month 0 (baseline)) is reported as 3.8 ± 1.3 µM, the “Serum concentrations of fatty acid forms” value ([1]; Month 1) is reported as 4.2 ± 1.5 µM and the “Serum concentrations of fatty acid forms” value ([1]; Month 3) is reported as 3.6 ± 0.8 µM. The “Serum concentrations of fatty acid forms” value ([1]; Month 6) was 3.8 ± 1.3 µM.
`CCCCCCCCCCCCCCC(=O)O` [C15:0, pentadecanoic acid] gave a concentration at 0 month ([2]; serum, oral) of 35 ± 9 µM, a concentration at 1 month ([2]; serum, oral) of 94 ± 33 µM and a concentration at 3 month ([2]; serum, oral) of 111 ± 29 µM. For the same compound, the concentration at 6 month ([2]; serum, oral) was 101 ± 29 µM, the “Increased serum concentration as independent, linear predictor of red blood cell indices” value [3] was “independently predicted higher hematocrit, higher packed cell volume, higher hemoglobin, and higher red blood cell counts” and the “Serum fatty acid (%)” value ([4]; MMP Dolphins (n = 30)) was 0.3 ± 0.1%. The “Serum fatty acid (%)” value [4, 5] was 1.1 ± 0.4%.
In the case of `CCCCCCCCCCCCCCCC(=O)O[C@H]1CC[C@@]2(C)C(=CC[C@H]3[C@@H]4CC[C@H]([C@H](C)CCCC(C)C)[C@@]4(C)CC[C@@H]32)C1` [C16:0 CE], the “Serum concentrations of fatty acid forms” value ([1]; Month 0 (baseline)) is reported as 273 ± 50 µM, the “Serum concentrations of fatty acid forms” value ([1]; Month 1) is reported as 226 ± 41 µM and the “Serum concentrations of fatty acid forms” value ([1]; Month 3) is reported as 244 ± 33 µM. The “Serum concentrations of fatty acid forms” value ([1]; Month 6) was 245 ± 48 µM.
Compound `CCCCCCCCCCCCCCCC(=O)O` [C16:0, palmitic acid] has a concentration at 0 month ([2]; in vivo) of 1440 ± 194 µM, a concentration at 1 month ([2]; in vivo) of 1370 ± 199 µM and a concentration at 3 month ([2]; in vivo) of 1500 ± 221 µM. The concentration at 6 month ([2]; in vivo) was 1450 ± 155 µM and the “Change of total serum concentration versus Month 0” value ([2]; in vivo) was “either did not change or decreased”.
For `CCCCCCCCCCCCCCCCC(=O)O[C@H]1CC[C@@]2(C)C(=CC[C@H]3[C@@H]4CC[C@H]([C@H](C)CCCC(C)C)[C@@]4(C)CC[C@@H]32)C1` [C17:0 CE], the “Serum concentrations of fatty acid forms” value ([1]; Month 0 (baseline)) was 14 ± 4 µM, the “Serum concentrations of fatty acid forms” value ([1]; Month 1) was 18 ± 7 µM and the “Serum concentrations of fatty acid forms” value ([1]; Month 3) was 20 ± 8 µM. The “Serum concentrations of fatty acid forms” value ([1]; Month 6) was 21 ± 9 µM.
For `CCCCCCCCCCCCCCCCC(=O)O` [C17:0, heptadecanoic acid], the concentration at 0 month ([2]; serum, oral) was 51 ± 9 µM, the concentration at 1 month ([2]; serum, oral) was 82 ± 21 µM and the concentration at 3 month ([2]; serum, oral) was 93 ± 23 µM. For the same compound, the concentration at 6 month ([2]; serum, oral) was 85 ± 15 µM, the “Increased serum concentration as independent, linear predictor of red blood cell indices” value [3] was “independently predicted higher hematocrit, higher packed cell volume, higher hemoglobin, and higher red blood cell counts” and the “Serum fatty acid (%)” value ([4]; MMP Dolphins (n = 30)) was 0.3 ± 0.1%. The “Serum fatty acid (%)” value [4, 5] was 1.3 ± 0.4%.
With `CCCCCCCCCCCCC/C=C/[C@@H](O)[C@H](CO)NC(=O)CCCCCCCCCCCCCCCCCCC` [C20:0 CER] the “Serum concentrations of fatty acid forms” value ([1]; Month 0 (baseline)) was 0.50 ± 0.10 µM, the “Serum concentrations of fatty acid forms” value ([1]; Month 1) was 0.39 ± 0.08 µM and the “Serum concentrations of fatty acid forms” value ([1]; Month 3) was 0.42 ± 0.08 µM. For the same compound, the “Serum concentrations of fatty acid forms” value ([1]; Month 6) was 0.41 ± 0.07 µM.
With `CCCCCCCCCCCCCCCCCCCC(=O)O` [C20:0 FFA] the “Serum concentrations of fatty acid forms” value ([1]; Month 0 (baseline)) was 6.6 ± 2.5 µM, the “Serum concentrations of fatty acid forms” value ([1]; Month 1) was 4.4 ± 1.4 µM and the “Serum concentrations of fatty acid forms” value ([1]; Month 3) was 5.0 ± 2.3 µM. For the same compound, the “Serum concentrations of fatty acid forms” value ([1]; Month 6) was 17 ± 10 µM.
With `CCCCCCCCCCCCCCCCCCCC(=O)O` [C20:0] the “Serum fatty acid (%)” value ([4]; MMP Dolphins (n = 30)) was 0.9 ± 0.2% and the “Serum fatty acid (%)” value [4, 5] was 1.5 ± 0.3%.
In the case of `CCCCCCCCCCCCC/C=C/[C@@H](O)[C@H](CO)NC(=O)CCCCCCCCCCCCCCCCCCCCC` [C22:0 CER], the “Serum concentrations of fatty acid forms” value ([1]; Month 0 (baseline)) is reported as 0.19 ± 0.04 µM, the “Serum concentrations of fatty acid forms” value ([1]; Month 1) is reported as 0.23 ± 0.05 µM and the “Serum concentrations of fatty acid forms” value ([1]; Month 3) is reported as 0.26 ± 0.07 µM. For the same compound, the “Serum concentrations of fatty acid forms” value ([1]; Month 6) was 0.25 ± 0.06 µM.
For `CCCCCCCCCCCCCCCCCCCCCC(=O)O[C@H]1CC[C@@]2(C)C(=CC[C@H]3[C@@H]4CC[C@H]([C@H](C)CCCC(C)C)[C@@]4(C)CC[C@@H]32)C1` [C22:0 CE], the “Serum concentrations of fatty acid forms” value ([1]; Month 0 (baseline)) was 8.5 ± 2.4 µM, the “Serum concentrations of fatty acid forms” value ([1]; Month 1) was 5.7 ± 1.5 µM and the “Serum concentrations of fatty acid forms” value ([1]; Month 3) was 5.9 ± 1.5 µM. For the same compound, the “Serum concentrations of fatty acid forms” value ([1]; Month 6) was 6.3 ± 2.1 µM.
`CCCCCCCCCCCCCCCCCCCCCC(=O)O` [C22:0, behenic acid] showed a concentration at 0 month ([2]; in vivo) of 23 ± 4 µM, a concentration at 1 month ([2]; in vivo) of 21 ± 3 µM and a concentration at 3 month ([2]; in vivo) of 23 ± 3 µM. For the same compound, the concentration at 6 month ([2]; in vivo) was 24 ± 5 µM, the “Serum fatty acid (%)” value ([4]; MMP Dolphins (n = 30)) was 0.2 ± 0.04% and the “Serum fatty acid (%)” value [4, 5] was 0.7 ± 0.2%.
With `CCCCCCCCCCCCCCCCCCCCCCCC(=O)N[C@@H](CO)[C@H](O)CCCCCCCCCCCCCCC` [C24:0 DCER] the “Serum concentrations of fatty acid forms” value ([1]; Month 0 (baseline)) was 0.07 ± 0.02 µM, the “Serum concentrations of fatty acid forms” value ([1]; Month 1) was 0.11 ± 0.03 µM and the “Serum concentrations of fatty acid forms” value ([1]; Month 3) was 0.13 ± 0.05 µM. For the same compound, the “Serum concentrations of fatty acid forms” value ([1]; Month 6) was 0.12 ± 0.03 µM.
With `CCCCCCCCCCCCCCCCCCCCCCCC(=O)O` [C24:0] the “Serum fatty acid (%)” value ([4]; MMP Dolphins (n = 30)) was 0.1 ± 0.0% and the “Serum fatty acid (%)” value [4, 5] was 0.5 ± 0.1%.
With `CCCCCCCCCCCCCCCCCCCCCCCCCC(=O)O` [C26:0] the “Change of total serum concentration versus Month 0” value ([2]; in vivo) was “increased”.
